# Results from patent publication US20240166660A1, “KRAS G12C INHIBITORS” (BeiGene Switzerland GmbH, priority 2021, published 2024).
# Target: KRAS (aa 1-169) G12C, C51S, C80L, C118S (Homo sapiens (Human), UniProt P01116, C118S/C51S/C80L/G12C)
# Assay: Biochemical functional assay: SOS1-mediated nucleotide exchange of GDP-loaded KRAS G12C, binding to GST-cRaf RBD, FRET readout
# Conditions: 3 hrs pre-incubation with compound at 24° C., SOS1, GTPyS, inhibition of nucleotide exchange
# Outline: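 GDP-loaded His-tagged KRAS construct preincubated with compound 3 h at 24° C in 25 mM HEPES pH7.5, 10 mM MgCl2, 0.01% Triton X-100; SOS1 (aa 564-1049), GTPγS and GST-cRaf RBD added for 3 h, then anti-His Tb cryptate/anti-GST XL665 for 3 h. HTRF 665/620 ratio; IC50 by four-parameter logistic fit.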
# Chain of KRAS (aa 1-169) G12C, C51S, C80L, C118S (P01116 other isoform, or with tags, fused parts or gaps G12C/C51S/C80L/C118S): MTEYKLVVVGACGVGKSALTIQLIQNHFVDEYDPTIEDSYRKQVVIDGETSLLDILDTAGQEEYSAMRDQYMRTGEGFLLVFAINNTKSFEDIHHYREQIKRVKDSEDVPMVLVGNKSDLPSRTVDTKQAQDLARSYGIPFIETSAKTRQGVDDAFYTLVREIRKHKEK
row,Compound,IC50 [nM]
1,"C=C(F)C(=O)N1CCN(c2nc(OC[C@]3(C)CCCN3C)nc3cc(-c4cccc5cccc(Cl)c45)c4c(c23)OCCC4)C[C@@H]1CC#N [Compound B60, 2-((S)-4-(5-(8-chloronaphthalen-1-yl)-8-(((S)-1,2-dimethylpyrrolidin-2-yl)methoxy)-3,4-dihydro-2H-pyrano[2,3-f]quinazolin-10-yl)-1-(2-fluoroacryloyl)piperazin-2-yl)acetonitrile]",252
2,"C=C(F)C(=O)N1CCN(c2nc(O[C@@H]3CCCC[C@H]3N(C)C)nc3cc(-c4cccc5cccc(Cl)c45)c4c(c23)OCCC4)C[C@@H]1CC#N [Compound B61, 2-((S)-4-(5-(8-chloronaphthalen-1-yl)-8-(((1R,2R)-2-(dimethylamino)cyclohexyl)oxy)-3,4-dihydro-2H-pyrano[2,3-f]quinazolin-10-yl)-1-(2-fluoroacryloyl)piperazin-2-yl)acetonitrile]",186
3,"C=CC(=O)N1C[C@H](C)N(c2nc(OC[C@@H]3CCCN3C)nc3cc(-c4c(Cl)c(C)cc5[nH]ncc45)c4ccoc4c23)C[C@H]1C [Compound B62, 1-((2R,5S)-4-(4-(5-chloro-6-methyl-1H-indazol-4-yl)-7-(((S)-1-methylpyrrolidin-2-yl)methoxy)furo[2,3-f]quinazolin-9-yl)-2,5-dimethylpiperazin-1-yl)prop-2-en-1-one]",642
4,"C=CC(=O)N1CCN(c2nc(OC[C@@H]3CCCN3C)nc3cc(-c4cccc5cccc(Cl)c45)c4c(c23)OCCC4)[C@@H](C)C1 [Compound B63, 1-((S)-4-(5-(8-chloronaphthalen-1-yl)-8-(((S)-1-methylpyrrolidin-2-yl)methoxy)-3,4-dihydro-2H-pyrano[2,3-f]quinazolin-10-yl)-3-methylpiperazin-1-yl)prop-2-en-1-one]",148
5,"C=C(F)C(=O)N1CCN(c2nc(OC3CN(C)C3)nc3cc(-c4cccc5cccc(Cl)c45)c4c(c23)OCCC4)C[C@@H]1CC#N [Compound B64, (S)-2-(4-(5-(8-chloronaphthalen-1-yl)-8-((1-methylazetidin-3-yl)oxy)-3,4-dihydro-2H-pyrano[2,3-f]quinazolin-10-yl)-1-(2-fluoroacryloyl)piperazin-2-yl)acetonitrile]",247
6,"C=C(F)C(=O)N1CCN(c2nc(OC[C@@H]3C[C@@H](F)CN3C)nc3cc(-c4cccc5cccc(Cl)c45)c4ccoc4c23)C[C@@H]1CC#N [Compound B65, 2-((S)-4-(4-(8-chloronaphthalen-1-yl)-7-(((2S,4R)-4-fluoro-1-methylpyrrolidin-2-yl)methoxy)furo[2,3-f]quinazolin-9-yl)-1-(2-fluoroacryloyl)piperazin-2-yl)acetonitrile]",30
7,"C=C(F)C(=O)N1CCN(c2nc(OC[C@@H]3CCCN3C)nc3cc(-c4cccc5cccc(Cl)c45)c4c(c23)OCCC4)C[C@@H]1CC#N [Compound B66, 2-((S)-4-(5-(8-chloronaphthalen-1-yl)-8-(((S)-1-methylpyrrolidin-2-yl)methoxy)-3,4-dihydro-2H-pyrano[2,3-f]quinazolin-10-yl)-1-(2-fluoroacryloyl)piperazin-2-yl)acetonitrile]",9.3
8,"C=C(F)C(=O)N1CCN(c2nc(OC3COCC3N(C)C)nc3cc(-c4cccc5cccc(Cl)c45)c4c(c23)OCCC4)C[C@@H]1CC#N (stereo partly drawn) [Compound B69, 2-((2S)-4-(5-(8-chloronaphthalen-1-yl)-8-((4-(dimethylamino)tetrahydrofuran-3-yl)oxy)-3,4-dihydro-2H-pyrano[2,3-f]quinazolin-10-yl)-1-(2-fluoroacryloyl)piperazin-2-yl)acetonitrile]",1220
9,"C=C(F)C(=O)N1CCN(c2nc(OC[C@@H]3CCCN3C)nc3cc(-c4cccc5ccc(Cl)cc45)c4c(c23)OCCC4)C[C@@H]1CC#N [Compound B70, 2-((S)-4-(5-(7-chloronaphthalen-1-yl)-8-(((S)-1-methylpyrrolidin-2-yl)methoxy)-3,4-dihydro-2H-pyrano[2,3-f]quinazolin-10-yl)-1-(2-fluoroacryloyl)piperazin-2-yl)acetonitrile]",35
10,"C=C(F)C(=O)N1CCN(c2nc(O[C@@H]3CCN(C)C3)nc3cc(-c4cccc5cccc(Cl)c45)c4c(c23)OCCC4)C[C@@H]1CC#N [Compound B71, 2-((S)-4-(5-(8-chloronaphthalen-1-yl)-8-(((R)-1-methylpyrrolidin-3-yl)oxy)-3,4-dihydro-2H-pyrano[2,3-f]quinazolin-10-yl)-1-(2-fluoroacryloyl)piperazin-2-yl)acetonitrile]",304
11,"C=C(F)C(=O)N1CCN(c2nc(OC[C@@H]3COCCN3C)nc3cc(-c4cccc5cccc(Cl)c45)c4c(c23)OCCC4)C[C@@H]1CC#N [Compound B72, 2-((S)-4-(5-(8-chloronaphthalen-1-yl)-8-(((S)-4-methylmorpholin-3-yl)methoxy)-3,4-dihydro-2H-pyrano[2,3-f]quinazolin-10-yl)-1-(2-fluoroacryloyl)piperazin-2-yl)acetonitrile]",194
12,"C=C(F)C(=O)N1CCN(c2nc(OC[C@@H]3C[C@H]4C[C@H]4N3C)nc3cc(-c4cccc5cccc(Cl)c45)c4c(c23)OCCC4)C[C@@H]1CC#N [Compound B73, 2-((S)-4-(5-(8-chloronaphthalen-1-yl)-8-(((1R,3S,5R)-2-methyl-2-azabicyclo[3.1.0]hexan-3-yl)methoxy)-3,4-dihydro-2H-pyrano[2,3-f]quinazolin-10-yl)-1-(2-fluoroacryloyl)piperazin-2-yl)acetonitrile]",50
13,"C=C(F)C(=O)N1CCN(c2nc(N3CCCC(N(C)C)C3)nc3cc(-c4cccc5cccc(Cl)c45)c4c(c23)OCCC4)C[C@@H]1CC#N (stereo partly drawn) [Compound B74, 2-((2S)-4-(5-(8-chloronaphthalen-1-yl)-8-(3-(dimethylamino)piperidin-1-yl)-3,4-dihydro-2H-pyrano[2,3-f]quinazolin-10-yl)-1-(2-fluoroacryloyl)piperazin-2-yl)acetonitrile]",837
14,"C=C(F)C(=O)N1CCN(c2nc(OC[C@@H]3CCN(C)C3)nc3cc(-c4cccc5cccc(Cl)c45)c4c(c23)OCCC4)C[C@@H]1CC#N [Compound B75, 2-((S)-4-(5-(8-chloronaphthalen-1-yl)-8-(((R)-1-methylpyrrolidin-3-yl)methoxy)-3,4-dihydro-2H-pyrano[2,3-f]quinazolin-10-yl)-1-(2-fluoroacryloyl)piperazin-2-yl)acetonitrile]",44
15,"C=CC(=O)N1CCN(c2nc(OC[C@@H]3CCCN3C)nc3cc(-c4c(C)cccc4Cl)c4ccoc4c23)CC1 [Compound B76, 1-(4-(4-(2-chloro-6-methylphenyl)-7-(((S)-1-methylpyrrolidin-2-yl)methoxy)furo[2,3-f]quinazolin-9-yl)piperazin-1-yl)prop-2-en-1-one]",279
16,"C=C(F)C(=O)N1CCN(c2nc(OC[C@@H]3CCCN3C)nc3cc(-c4ccc(C)cc4C(F)(F)F)c4ccoc4c23)C[C@@H]1CC#N [Compound B77, 2-((S)-1-(2-fluoroacryloyl)-4-(4-(4-methyl-2-(trifluoromethyl)phenyl)-7-(((S)-1-methylpyrrolidin-2-yl)methoxy)furo[2,3-f]quinazolin-9-yl)piperazin-2-yl)acetonitrile]",535
17,"C=C(F)C(=O)N1CCN(c2nc(OC[C@@H]3CCCN3C)nc3cc(-c4cccc5c4CCC5)c4c(c23)OCCC4)C[C@@H]1CC#N [Compound B78, 2-((S)-4-(5-(2,3-dihydro-1H-inden-4-yl)-8-(((S)-1-methylpyrrolidin-2-yl)methoxy)-3,4-dihydro-2H-pyrano[2,3-f]quinazolin-10-yl)-1-(2-fluoroacryloyl)piperazin-2-yl)acetonitrile]",12
18,"C=C(F)C(=O)N1CCN(c2nc(N3CC(N(C)C)C3)nc3cc(-c4c(Cl)c(C)cc5[nH]ncc45)c4ccoc4c23)C[C@@H]1CC#N [Compound B79, 2-((2S)-4-(4-(5-chloro-6-methyl-1H-indazol-4-yl)-7-(3-(dimethylamino)azetidin-1-yl)furo[2,3-f]quinazolin-9-yl)-1-(2-fluoroacryloyl)piperazin-2-yl)acetonitrile]",59
19,"C=C(F)C(=O)N1CCN(c2nc(N3CC(CC#N)(N(C)C)C3)nc3cc(-c4cccc5cccc(Cl)c45)c4ccoc4c23)C[C@@H]1CC#N [Compound B80, (S)-2-(4-(4-(8-chloronaphthalen-1-yl)-7-(3-(cyanomethyl)-3-(dimethylamino)azetidin-1-yl)furo[2,3-f]quinazolin-9-yl)-1-(2-fluoroacryloyl)piperazin-2-yl)acetonitrile]",222
20,"C=C(F)C(=O)N1CCN(c2nc(OC[C@@H]3CCCN3C)nc3cc(-c4cccc5c4CCCC5)c4c(c23)OCCC4)C[C@@H]1CC#N [Compound B81, 2-((S)-1-(2-fluoroacryloyl)-4-(8-(((S)-1-methylpyrrolidin-2-yl)methoxy)-5-(5,6,7,8-tetrahydronaphthalen-1-yl)-3,4-dihydro-2H-pyrano[2,3-f]quinazolin-10-yl)piperazin-2-yl)acetonitrile]",48
21,"C=CC(=O)N1CCN(c2nc(OC[C@@H]3CCCN3C)nc3cc(-c4cccc5cccc(Cl)c45)c4c(c23)OCCC4)C[C@@H]1CC#N [Compound B82, 2-((S)-1-acryloyl-4-(5-(8-chloronaphthalen-1-yl)-8-(((S)-1-methylpyrrolidin-2-yl)methoxy)-3,4-dihydro-2H-pyrano[2,3-f]quinazolin-10-yl)piperazin-2-yl)acetonitrile]",6.2
22,"C=CC(=O)N1CCN(c2nc(N3CC(N(C)C)C3)nc3cc(-c4ccccc4C(F)(F)F)c4ccoc4c23)CC1 [Compound B83, 1-(4-(7-(3-(dimethylamino)azetidin-1-yl)-4-(2-(trifluoromethyl)phenyl)furo[2,3-f]quinazolin-9-yl)piperazin-1-yl)prop-2-en-1-one]",1700
